For assay [1], the target named is full-length human PRMT8 isoform 1 (Homo sapiens, UniProt Q9NR22). Put plainly: PRMT8 Biochemical Assay (3H-SAM Flashplate, peptide substrate). As to conditions: read-out: Biochemical IC50 PRMT8. The method in brief: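 Full-length human PRMT8 (1.5 nM, E. coli-expressed, GST removed) preincubated 30 min at room temperature with compound, then reacted with 50 nM 3H-SAM plus 550 nM cold SAM and 150 nM biotinylated H4 31-45 peptide in 20 mM Bicine pH 7.6, 1 mM TCEP, 0.005% BSG, 0.002% Tween 20, 2% DMSO. Quenched with 400 uM cold SAM; labelled peptide captured on streptavidin Flashplate, % inhibition versus 1 mM SAH and DMSO controls fitted to 4- or 3-parameter curve.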
Chain of full-length human PRMT8 isoform 1 (Q9NR22 whole entry, canonical isoform): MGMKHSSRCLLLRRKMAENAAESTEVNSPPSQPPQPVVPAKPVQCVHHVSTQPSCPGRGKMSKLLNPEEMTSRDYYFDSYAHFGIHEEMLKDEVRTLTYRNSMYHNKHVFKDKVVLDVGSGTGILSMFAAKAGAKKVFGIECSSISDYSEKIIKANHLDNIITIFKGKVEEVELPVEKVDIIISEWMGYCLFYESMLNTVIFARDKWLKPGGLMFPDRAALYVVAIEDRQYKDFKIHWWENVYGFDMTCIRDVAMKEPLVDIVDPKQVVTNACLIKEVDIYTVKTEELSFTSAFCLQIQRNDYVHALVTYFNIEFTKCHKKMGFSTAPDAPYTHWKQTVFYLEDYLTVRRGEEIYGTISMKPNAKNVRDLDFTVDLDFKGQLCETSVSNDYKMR

Assay [2] deals with full-length human PRMT1 isoform 1 (GST-tagged) (Homo sapiens, UniProt Q99873). Nature of the assay: PRMT1 Biochemical Assay (3H-SAM Flashplate, peptide substrate). The method in brief:
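GST-tagged full-length PRMT1 from baculovirus-infected cells, preincubated 30 min at room temperature with compound in 20 mM Bicine pH 7.6, TCEP, BSG, Tween 20. Reaction started with 3H-SAM plus biotinylated peptide, stopped with 300 uM unlabelled SAM. Streptavidin Flashplate capture and scintillation counting; % inhibition curve-fitted for IC50.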

Setting [3] is: single experiment or average of multiple experiments.

Counter-ions that a name gives are not always drawn. Like-named read-outs stand apart in the source and are kept apart here.

Our source for the IC50 values is patent US11512053B2, “Arginine methyltransferase inhibitors and uses thereof” (priority 2013, dated 2022).

Chain of full-length human PRMT1 isoform 1 (GST-tagged) (Q99873 with tags, fused parts or gaps): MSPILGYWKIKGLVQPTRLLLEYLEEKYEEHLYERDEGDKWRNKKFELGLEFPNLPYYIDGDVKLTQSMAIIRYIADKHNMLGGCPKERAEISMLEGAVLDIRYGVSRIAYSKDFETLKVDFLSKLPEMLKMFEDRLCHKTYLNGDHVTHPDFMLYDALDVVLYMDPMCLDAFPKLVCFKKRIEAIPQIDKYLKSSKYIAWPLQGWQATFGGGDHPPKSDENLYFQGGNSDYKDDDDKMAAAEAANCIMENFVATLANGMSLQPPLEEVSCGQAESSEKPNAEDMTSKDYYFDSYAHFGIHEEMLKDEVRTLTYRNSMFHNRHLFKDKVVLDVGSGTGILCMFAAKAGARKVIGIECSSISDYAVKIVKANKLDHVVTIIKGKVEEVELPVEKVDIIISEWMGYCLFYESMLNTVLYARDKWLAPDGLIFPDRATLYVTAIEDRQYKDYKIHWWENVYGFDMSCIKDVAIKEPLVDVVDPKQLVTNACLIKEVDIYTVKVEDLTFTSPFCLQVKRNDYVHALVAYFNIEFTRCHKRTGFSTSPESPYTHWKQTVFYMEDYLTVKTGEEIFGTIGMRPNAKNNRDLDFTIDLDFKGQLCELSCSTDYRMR

Usually IC50 stands for the midpoint of a concentration-inhibition curve. `CN(CCN)Cc1c[nH]nc1C1CCC2(CCCC2)CC1` [Compound 45]: the IC50 in assay [1] (setting [3]) was 5.3 nM; in assay [2], less than 100 nM; in assay [2] (setting [3]), 2.8 nM.

For the compound `CNCCN(C)Cc1c[nH]nc1C1CCC2(CCCCC2)CC1` [Compound 46], the results for the IC50 in assay [1] (setting [3]), in assay [2] and in assay [2] (setting [3]) were 6.2 nM, less than 100 nM and 7.9 nM, respectively.

With `CNCCN(C)Cc1cn(C)nc1C1CCC2(CCCC2)CC1` [Compound 47], the values for the IC50 in assay [1] (setting [3]), in assay [2] and in assay [2] (setting [3]) were 12.5 nM, less than 100 nM and 4.3 nM, respectively.

As to `CNCCN(C)Cc1c[nH]nc1C1CCC2(CCCC2)CC1` [Compound 48], the IC50 in assay [1] (setting [3]) is 8.3 nM; in assay [2], less than 100 nM; in assay [2] (setting [3]), 7.4 nM.

`CNCCN(C)Cc1cnn(C)c1C1CCC2(CCCC2)CC1` [Compound 49]: the IC50 in assay [1] (setting [3]) is 7.3 nM; in assay [2], less than 100 nM; in assay [2] (setting [3]), 4.3 nM.

`CNCCN(C)Cc1c[nH]nc1C1CCC(C(C)C)CC1` (centres unmarked) [Compound 50]: the results for the IC50 in assay [1] (setting [3]), in assay [2] and in assay [2] (setting [3]) were 11.2 nM, less than 100 nM and 8.6 nM, respectively.

For `CNCCN(C)Cc1c[nH]nc1C1CCC2(CCCO2)CC1` (centres unmarked) [Compound 51], the results for the IC50 in assay [1] (setting [3]), in assay [2] and in assay [2] (setting [3]) were 21.4 nM, less than 100 nM and 9.4 nM, respectively.

Turning to `CNCCN(C)Cc1c[nH]nc1C1CCC(C)(C)CC1` [Compound 52], the concentration for half-maximal inhibition (IC50) was 10.4 nM in assay [1] (setting [3]), less than 100 nM in assay [2] and 4.7 nM in assay [2] (setting [3]).

As for `CNCCN(C)Cc1c[nH]nc1C1CCC(COC)CC1` (centres unmarked) [Compound 53], the figures for the IC50 in assay [1] (setting [3]), in assay [2] and in assay [2] (setting [3]) were 12.8 nM, less than 100 nM and 10.5 nM, respectively.

For `CNCCN(C)Cc1c[nH]nc1C1CCC2(CCOC2)CC1` (centres unmarked) [Compound 54], the results for the IC50 in assay [1] (setting [3]), in assay [2] and in assay [2] (setting [3]) were 24.7 nM, less than 100 nM and 8 nM, respectively.

In the case of `CNCCN(C)Cc1c[nH]nc1C1CCC(CCOC)CC1` (centres unmarked) [Compound 55], the results for the half-maximal inhibitory concentration (IC50) in assay [1] (setting [3]), in assay [2] and in assay [2] (setting [3]) were 24.7 nM, less than 100 nM and 12.8 nM, respectively.

Consider `CNCCN(C)Cc1c[nH]nc1C1CCC(OC(C)C)CC1` (centres unmarked) [Compound 56], for which the IC50 in assay [1] (setting [3]) was 32 nM; in assay [2], less than 100 nM; in assay [2] (setting [3]), 13.8 nM.

Take `CNCCN(C)Cc1c[nH]nc1C1CCC(COC)(COC)CC1` [Compound 57]: the results for the IC50 in assay [1] (setting [3]), in assay [2] and in assay [2] (setting [3]) were 30.1 nM, less than 100 nM and 18.6 nM, respectively.

On to `CNCCN(C)Cc1c[nH]nc1C1CCC(OCCOC)CC1` (centres unmarked) [Compound 58], for which the IC50 in assay [1] (setting [3]) was 72.1 nM; in assay [2], less than 100 nM; in assay [2] (setting [3]), 26.5 nM.

Turning to `CNCCN(C)Cc1c[nH]nc1C1CC(C)(C)OC(C)(C)C1` [Compound 59], the half-inhibitory concentration (IC50) in assay [1] (setting [3]) was 48.4 nM; in assay [2] it was less than 100 nM; in assay [2] (setting [3]) it was 19.6 nM.

Turning to `CNCCN(C)Cc1c[nH]nc1C1CCC(COCCOC)(COCCOC)CC1` [Compound 60], the IC50 in assay [1] (setting [3]) is 129 nM; in assay [2] it was less than 100 nM; in assay [2] (setting [3]), 27.5 nM.

`CNCCN(C)Cc1c[nH]nc1C1CCC2(CCCCC2)OC1` (centres unmarked) [Compound 62]: the IC50 in assay [1] is less than 100 nM; in assay [1] (setting [3]) it was 20 nM; in assay [2] it was less than 100 nM; in assay [2] (setting [3]), 11.9 nM.

For `CNCCN(C)Cc1c[nH]nc1C1CCC2(CC1)CC(C)OC(C)C2` (centres unmarked) [Compound 63], the IC50 in assay [1] is less than 100 nM; in assay [1] (setting [3]), 12 nM; in assay [2] it was less than 100 nM; in assay [2] (setting [3]), 9 nM.

In the case of `CNCCN(C)Cc1c[nH]nc1C1CCC2(CCC(C)(C)CC2)OC1` (centres unmarked) [Compound 65], the IC50 in assay [1] was less than 100 nM; in assay [1] (setting [3]), 13.6 nM; in assay [2] it was less than 100 nM; in assay [2] (setting [3]) it was 9.65 nM.

For the compound `CNCCN(C)Cc1c[nH]nc1C1CCC(Oc2ccccc2)CC1` (centres unmarked) [Compound 67], the concentration for half-maximal inhibition (IC50) is less than 100 nM in assay [1], 11.9 nM in assay [1] (setting [3]), less than 100 nM in assay [2] and 7.8 nM in assay [2] (setting [3]).

Take `CCC(CC)OC1CCC(c2n[nH]cc2CN(C)CCNC)CC1` (centres unmarked) [Compound 70]: the 50% inhibitory concentration (IC50) was less than 100 nM in assay [1], 24.2 nM in assay [1] (setting [3]), less than 100 nM in assay [2] and 9.2 nM in assay [2] (setting [3]).

As for `CNCCN(C)Cc1c[nH]nc1C1CC(COC)C(C)(C)C(COC)C1` (centres unmarked) [Compound 86], the IC50 in assay [1] is 3010 to 10000 nM; in assay [1] (setting [3]) it was 3970 nM; in assay [2], 1010 to 3000 nM; in assay [2] (setting [3]), 1940 nM.

In the case of `CCOCC1CC(c2n[nH]cc2CN(C)CCNC)CC(COCC)C1(C)C` (centres unmarked) [Compound 87], the concentration for half-maximal inhibition (IC50) in assay [1] is 1010 to 3000 nM; in assay [1] (setting [3]), 1010 nM; in assay [2], 101 to 1000 nM; in assay [2] (setting [3]) it was 564 nM.

`CNCCN(C)Cc1c[nH]nc1C1CCC(C)(C)C(C(=O)NCC(C)C)C1` (centres unmarked) [Compound 90]: the IC50 was 101 to 1000 nM in assay [1], 117 nM in assay [1] (setting [3]), less than 100 nM in assay [2] and 34.4 nM in assay [2] (setting [3]).

As to `CNCCN(C)Cc1c[nH]nc1C1CCC(C)(C)C(C(=O)NCCC(C)C)C1` (centres unmarked) [Compound 91], the IC50 in assay [1] is less than 100 nM; in assay [1] (setting [3]) it was 29 nM; in assay [2], less than 100 nM; in assay [2] (setting [3]), 16.7 nM.

Turning to `CNCCN(C)Cc1c[nH]nc1C1CCC(C)(C)C(C(=O)NCc2ccccc2)C1` (centres unmarked) [Compound 92], the IC50 in assay [1] is less than 100 nM; in assay [1] (setting [3]), 42.1 nM; in assay [2], less than 100 nM; in assay [2] (setting [3]), 20.9 nM.

As for `CNCCN(C)Cc1c[nH]nc1C1CCC(C)(C)C(C(=O)NCCCOC)C1` (centres unmarked) [Compound 93], the IC50 in assay [1] is less than 100 nM; in assay [1] (setting [3]), 88.1 nM; in assay [2] it was less than 100 nM; in assay [2] (setting [3]), 31.3 nM.

In the case of `CNCCN(C)Cc1c[nH]nc1C1CCC(C)(C)C(COCC(C)C)C1` (centres unmarked) [Compound 95], the IC50 in assay [1] was less than 100 nM; in assay [1] (setting [3]), 18.9 nM; in assay [2], less than 100 nM; in assay [2] (setting [3]), 9.35 nM.

Turning to `CNCCN(C)Cc1c[nH]nc1[C@H]1CCC(C)(C)[C@@H](C(=O)NCCOC)C1` [Compound 268], the IC50 is 101 to 1000 nM in assay [1], 210 nM in assay [1] (setting [3]), less than 100 nM in assay [2] and 68.6 nM in assay [2] (setting [3]).

As for `CNCCN(C)Cc1c[nH]nc1[C@@H]1CCC(C)(C)[C@@H](C(=O)NCCOC)C1` [Compound 269], the IC50 was 101 to 1000 nM in assay [1], 155 nM in assay [1] (setting [3]), less than 100 nM in assay [2] and 51.3 nM in assay [2] (setting [3]).

Take `CNCCN(C)Cc1c[nH]nc1[C@H]1CCC(C)(C)[C@@H](C(=O)NCCCOC)C1` [Compound 270]: the IC50 in assay [1] is 101 to 1000 nM; in assay [1] (setting [3]) it was 204 nM; in assay [2], less than 100 nM; in assay [2] (setting [3]) it was 62.5 nM.

`CNCCN(C)Cc1c[nH]nc1[C@@H]1CCC(C)(C)[C@@H](C(=O)NCCCOC)C1` [Compound 271, (1S,5R)—N-(3-methoxypropyl)-2,2-dimethyl-5-[4-({methyl[2-(methylamino)ethyl]amino}methyl)-1H-pyrazol-3-yl]cyclohexane-1-carboxamide]: the IC50 in assay [1] is less than 100 nM; in assay [1] (setting [3]), 100 nM; in assay [2], less than 100 nM; in assay [2] (setting [3]), 37.1 nM.

As to `CNCCN(C)Cc1c[nH]nc1C1CCC(C)(C)[C@H](OCCCOC)C1` (some centres unmarked) [Compound 272], the IC50 in assay [1] was less than 100 nM; in assay [1] (setting [3]), 25.8 nM; in assay [2], less than 100 nM; in assay [2] (setting [3]), 12.4 nM.

As to `CNCCN(C)Cc1c[nH]nc1C1CCC(C)(C)[C@H](OCC2CCOCC2)C1` (stereo partly drawn) [Compound 273, ({3-[(3R)-4,4-dimethyl-3-(oxan-4-ylmethoxy)cyclohexyl]-1H-pyrazol-4-yl}methyl)(methyl)[2-(methylamino)ethyl]amine], the IC50 was less than 100 nM in assay [1], 22.6 nM in assay [1] (setting [3]), less than 100 nM in assay [2] and 11.4 nM in assay [2] (setting [3]).

For the compound `CNCCN(C)Cc1ccnn1C1CCC2(CC1)CC(C)(C)CO2` (centres unmarked) [Compound 274, trifluoroacetate], the IC50 in assay [1] is less than 100 nM; in assay [1] (setting [3]), 11.9 nM; in assay [2], less than 100 nM; in assay [2] (setting [3]), 8.19 nM.

Consider `CNCCN(C)Cc1ccnn1C1CCC2(CCCC2)CC1` [Compound 275, Methyl[2-(methylamino)ethyl][(1-[spiro[4.5]decan-8-yl]-1H-pyrazol-5-yl)methyl]amine trifluoroacetate], for which the IC50 is less than 100 nM in assay [1], 10.4 nM in assay [1] (setting [3]), less than 100 nM in assay [2] and 4.62 nM in assay [2] (setting [3]).
